Reference: patent US9260429B2, “Pyrido[3,4-B]indoles and methods of use” (Medivation Technologies, Inc., priority 2008, dated 2016)
Read-outs that look alike come from different tables or passages of the source.

Key:
[1] = molecular target: T1, human recombinant serotonin (5-Hydroxytryptamine) 5-HT6 receptor (Homo sapiens, UniProt P50406); assay: Serotonin 5-HT6 radioligand binding ([3H]LSD)
T1 construct: expressed in transfected cells; host or cells: human HeLa cells
Method in brief: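 Human 5-HT6 receptor expressed in HeLa cells, in Tris-HCl pH 7.4 with 150 mM NaCl, ascorbic acid and BSA. Compounds at 1 μM or lower (1% DMSO) incubated 120 min at 37° C with 1.5 nM [3H]LSD. Non-specific binding defined with serotonin; filter counting gives % inhibition of specific binding.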

[2] = molecular target: T2, human recombinant histamine H1 receptor (Homo sapiens, UniProt P35367); assay: Histamine H1 radioligand binding ([3H]Pyrilamine)
T2 construct: expressed in transfected cells; host or cells: CHO cells
T2 sequence (P35367 whole entry): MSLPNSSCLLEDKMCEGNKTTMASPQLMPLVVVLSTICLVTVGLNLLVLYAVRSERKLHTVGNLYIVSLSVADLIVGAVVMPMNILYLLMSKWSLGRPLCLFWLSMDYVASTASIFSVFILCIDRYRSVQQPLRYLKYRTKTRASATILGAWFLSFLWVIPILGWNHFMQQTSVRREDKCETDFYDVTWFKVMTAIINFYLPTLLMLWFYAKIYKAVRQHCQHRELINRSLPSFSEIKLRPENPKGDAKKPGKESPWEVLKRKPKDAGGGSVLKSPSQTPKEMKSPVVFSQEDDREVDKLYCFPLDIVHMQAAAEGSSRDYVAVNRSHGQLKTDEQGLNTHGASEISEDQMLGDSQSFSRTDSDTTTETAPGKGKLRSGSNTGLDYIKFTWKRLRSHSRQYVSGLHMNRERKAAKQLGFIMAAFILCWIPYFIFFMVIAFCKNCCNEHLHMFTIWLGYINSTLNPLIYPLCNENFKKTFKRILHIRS
Method in brief: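 Binding to the human recombinant histamine H1 receptor, expressed in CHO cells, was measured in a modified Tris-HCl buffer (50 mM Tris-HCl, pH 7.4, 2 mM MgCl2, 100 mM NaCl, 250 mM Sucrose). Compounds were incubated with 1.2 nM [3H]Pyrilamine for 180 minutes at 25° C, with 1 μM pyrilamine defining non-specific binding. After filtration and washing, filter counts gave percent inhibition of specific binding.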

[3] = molecular target: T3, human recombinant histamine H2 receptor (Homo sapiens, UniProt P25021); assay: Histamine H2 radioligand binding ([125I]Aminopotentidine)
T3 construct: expressed in transfected cells; host or cells: CHO-K1 cells
T3 sequence (P25021 whole entry): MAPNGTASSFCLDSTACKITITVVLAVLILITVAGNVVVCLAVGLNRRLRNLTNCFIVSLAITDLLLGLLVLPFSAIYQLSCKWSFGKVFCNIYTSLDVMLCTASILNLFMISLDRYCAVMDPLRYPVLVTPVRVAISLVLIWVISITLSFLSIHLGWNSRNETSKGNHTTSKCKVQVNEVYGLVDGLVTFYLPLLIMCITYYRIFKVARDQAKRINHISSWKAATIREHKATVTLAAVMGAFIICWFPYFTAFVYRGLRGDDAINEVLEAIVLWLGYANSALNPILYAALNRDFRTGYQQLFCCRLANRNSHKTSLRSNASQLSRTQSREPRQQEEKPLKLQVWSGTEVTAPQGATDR
Method in brief: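 Membranes of CHO-K1 cells expressing human H2 receptor incubated with 0.1 nM [125I]aminopotentidine, 120 min, 25 °C, 50 mM phosphate pH 7.4; nonspecific binding defined with 3 μM tiotidine.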

[4] = molecular target: T4, human recombinant serotonin (5-Hydroxytryptamine) 5-HT2C receptor (Homo sapiens, UniProt P28335); assay: Serotonin 5-HT2C radioligand binding ([3H]Mesulergine)
T4 construct: expressed in transfected cells; host or cells: CHO-K1 cells
T4 sequence (P28335 33-458): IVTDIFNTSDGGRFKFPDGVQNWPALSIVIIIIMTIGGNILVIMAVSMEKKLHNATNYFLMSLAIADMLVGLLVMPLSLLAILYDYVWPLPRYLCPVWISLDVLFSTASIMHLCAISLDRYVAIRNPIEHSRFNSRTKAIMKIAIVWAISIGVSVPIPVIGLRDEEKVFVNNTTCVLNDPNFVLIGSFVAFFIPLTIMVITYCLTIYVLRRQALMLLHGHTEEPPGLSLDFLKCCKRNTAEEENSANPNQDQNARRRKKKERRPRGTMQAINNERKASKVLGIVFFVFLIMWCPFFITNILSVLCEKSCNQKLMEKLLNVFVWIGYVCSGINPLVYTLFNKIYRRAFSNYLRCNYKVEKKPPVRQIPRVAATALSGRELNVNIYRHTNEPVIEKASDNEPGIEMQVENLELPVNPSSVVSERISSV
Description: Compounds of the invention were incubated with 1 nM [^3H]Mesulergine for 60 minutes at 25° C. Non-specific binding was estimated in the presence of 1 μM Mianserin. Receptor proteins were filtered and washed, the filters were then counted to determine [^3H]Mesulergine specifically bound. […] Biochemical assay results are presented as the percent inhibition of specific binding in Table 5.

[5] = molecular target: T5, human recombinant serotonin (5-Hydroxytryptamine) 5-HT2A receptor (Homo sapiens, UniProt P28223); assay: Serotonin 5-HT2A radioligand binding ([3H]Ketanserin)
T5 construct: expressed in transfected cells; host or cells: CHO-K1 cells
T5 sequence (P28223 whole entry): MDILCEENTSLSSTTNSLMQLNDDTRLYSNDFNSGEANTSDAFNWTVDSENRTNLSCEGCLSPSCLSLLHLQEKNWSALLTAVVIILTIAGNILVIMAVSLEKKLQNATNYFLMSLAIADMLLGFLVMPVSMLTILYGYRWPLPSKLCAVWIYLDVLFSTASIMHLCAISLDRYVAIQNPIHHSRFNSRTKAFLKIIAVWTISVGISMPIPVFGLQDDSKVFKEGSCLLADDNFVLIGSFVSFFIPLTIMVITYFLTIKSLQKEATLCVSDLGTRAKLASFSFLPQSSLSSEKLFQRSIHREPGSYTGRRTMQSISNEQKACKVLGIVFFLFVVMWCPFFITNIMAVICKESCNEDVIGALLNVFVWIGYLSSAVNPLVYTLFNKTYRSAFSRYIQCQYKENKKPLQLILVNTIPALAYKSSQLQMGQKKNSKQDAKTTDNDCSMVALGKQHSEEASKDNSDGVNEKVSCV
Method in brief: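 Membranes from CHO-K1 cells expressing the receptor, in 50 mM Tris-HCl pH 7.4, incubated 60 min at 25° C with 0.5 nM [3H]Ketanserin; 1 μM Mianserin defines non-specific binding. Filtration and counting; values are % inhibition of specific binding at 1 μM or lower, 1% DMSO.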

[6] = 2 h, read-out: Percent Inhibition of ligand binding Serotonin (1 μM ligand concentration) 5-HT6
[7] = 1 μM, read-out: Binding data (Percentage Inhibition) Histamine Binding (1 μM) H1
[8] = 1 μM, inhibition of specific [125I]Aminopotentidine binding, read-out: Binding data (Percentage Inhibition) Histamine Binding (1 μM) H2
[9] = 1 h, read-out: Percent Inhibition of ligand binding Serotonin (1 μM ligand concentration) 5-HT2C
[10] = 1 h, read-out: Percent Inhibition of ligand binding Serotonin (1 μM ligand concentration) 5-HT2A

T1 sequence (P50406 whole entry): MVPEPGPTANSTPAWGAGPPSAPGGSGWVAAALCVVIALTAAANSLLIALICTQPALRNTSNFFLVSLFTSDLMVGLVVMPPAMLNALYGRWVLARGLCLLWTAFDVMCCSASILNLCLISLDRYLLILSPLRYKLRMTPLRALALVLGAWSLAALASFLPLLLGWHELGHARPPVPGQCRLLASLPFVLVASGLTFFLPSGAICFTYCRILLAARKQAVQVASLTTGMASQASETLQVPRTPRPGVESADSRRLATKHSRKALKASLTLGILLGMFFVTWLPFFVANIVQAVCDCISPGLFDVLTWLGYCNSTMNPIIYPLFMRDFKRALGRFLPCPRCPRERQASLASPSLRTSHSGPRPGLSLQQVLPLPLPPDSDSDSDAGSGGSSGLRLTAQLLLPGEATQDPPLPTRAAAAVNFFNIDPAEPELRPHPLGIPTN

Compound | inhibition at 1 µM [1, 6] [%] | inhibition at 1 µM [2, 7] [%] | inhibition at 1 µM [3, 8] [%] | inhibition at 1 µM [4, 9] [%] | inhibition at 1 µM [5, 10] [%] | further results
CN1CCc2c(n(CC(=O)N3CCCC3)c3ccc(Cl)cc23)C1 [Compound 40, 2-(6-chloro-1,2,3,4-tetrahydro-2-methylpyrido[3,4-b]indol-9-yl)-1-(pyrrolidin-1-yl)ethanone] | 6 | 7 | 4 | 12 | 5 | –
C/C(=C\n1c2c(c3cc(C)ccc31)CCN(C)C2)c1ccc(Cl)cc1 [Compound 97, 9-(2-(4-chlorophenyl)prop-1-enyl)-2,6-dimethyl-2,3,4,9-tetrahydro-1H-pyrido[3,4-b]indole] | 72 | 20 | 89 | 99 | 97 | –
CN1CCc2c(n(CC(=O)N3CCNCC3)c3ccc(Cl)cc23)C1 [Compound 55, 2-(6-chloro-2-methyl-3,4-dihydro-1H-pyrido[3,4-b]indol-9(2H)-yl)-1-(piperazin-1-yl)ethanone] | 0 | 90 | 2 | 13 | 17 | –
Cc1ccc(CCn2c3c(c4cc(Cl)ccc42)CCN(C)C3C)cn1 (centres unmarked) [Compound 80] | 23 | 66 | 18 | 79 | 56 | –
CN1CCc2c(n(CC(O)c3ccccc3)c3ccc(Cl)cc23)C1 (centres unmarked) [Compound 71] | 66 | 54 | 11 | 81 | 87 | –
Cc1ccc2c(c1)c1c(n2/C=C/c2ccccc2)CN(C)CC1 [Compound 92] | 96 | 99 | 50 | 96 | 97 | inhibition at 0.01 µM ([1]; compound concentration 10 nM, read-out: Percentage inhibition of ligand binding to 5-HT6 receptor): 14%; inhibition at 0.03 µM ([1]; compound concentration 0.03 μM, read-out: Percentage inhibition of ligand binding to 5-HT6 receptor): 28%; inhibition at 0.1 µM ([1]; compound concentration 0.1 μM, read-out: Percentage inhibition of ligand binding to 5-HT6 receptor): 60%; inhibition at 0.3 µM ([1]; compound concentration 0.3 μM, read-out: Percentage inhibition of ligand binding to 5-HT6 receptor): 81%; inhibition at 1 µM ([1]; compound concentration 1 μM, read-out: Percentage inhibition of ligand binding to 5-HT6 receptor): 96%; inhibition at 0.03 µM ([2]; compound concentration 0.03 μM, read-out: Percentage inhibition of ligand binding to H1 receptor): 67%; inhibition at 0.1 µM ([2]; compound concentration 0.1 μM, read-out: Percentage inhibition of ligand binding to H1 receptor): 91%; inhibition at 0.3 µM ([2]; compound concentration 0.3 μM, read-out: Percentage inhibition of ligand binding to H1 receptor): 96%; inhibition at 1 µM ([2]; compound concentration 1 μM, read-out: Percentage inhibition of ligand binding to H1 receptor): 99%; inhibition at 1 µM ([3]; compound concentration 1 μM, read-out: Percentage inhibition of ligand binding to H2 receptor): 50%; inhibition at 1 µM ([4]; compound concentration 1 μM, read-out: Percentage inhibition of ligand binding to 5-HT2C receptor): 96%; inhibition at 0.01 µM ([5]; compound concentration 10 nM, read-out: Percentage inhibition of ligand binding to 5-HT2A receptor): 13%; inhibition at 0.03 µM ([5]; compound concentration 0.03 μM, read-out: Percentage inhibition of ligand binding to 5-HT2A receptor): 37%; inhibition at 0.1 µM ([5]; compound concentration 0.1 μM, read-out: Percentage inhibition of ligand binding to 5-HT2A receptor): 65%; inhibition at 0.3 µM ([5]; compound concentration 0.3 μM, read-out: Percentage inhibition of ligand binding to 5-HT2A receptor): 83%; inhibition at 1 µM ([5]; compound concentration 1 μM, read-out: Percentage inhibition of ligand binding to 5-HT2A receptor): 97%
CN1CCc2c(n(CC(O)c3ccccc3F)c3ccc(Cl)cc23)C1 (centres unmarked) [Compound 59, 2-(6-chloro-2-methyl-3,4-dihydro-1H-pyrido[3,4-b]indol-9(2H)-yl)-1-(2-fluorophenyl)ethanol] | 60 | 13 | 28 | 74 | 80 | –
Cc1ccc2c(c1)c1c(n2CC(C)(O)c2ccc(F)cc2)CN(C)CC1 (centres unmarked) [Compound 61, 1-(2,6-dimethyl-3,4-dihydro-1H-pyrido[3,4-b]indol-9(2H)-yl)-2-(4-fluorophenyl)propan-2-ol] | 61 | 49 | 17 | 81 | 86 | –
CCC1c2c(c3cc(C)ccc3n2C#Cc2ccc(Cl)cc2)CCN1C (centres unmarked) [Compound 162, 9-((4-chlorophenyl)ethynyl)-1-ethyl-2,6-dimethyl-2,3,4,9-tetrahydro-1H-pyrido[3,4-b]indole] | 12 | 15 | 33 | 101 | 98 | –
CC(C)CCN(C)C(=O)Cn1c2c(c3cc(Cl)ccc31)CCN(C)C2 [Compound 14, 2-(6-chloro-1,2,3,4-tetrahydro-2-methylpyrido[3,4-b]indol-9-yl)-N-isopentyl-N-methylacetamide] | 12 | 0 | 12 | 20 | 27 | –
CCC1c2c(c3cc(Cl)ccc3n2CC(C)(O)c2ccc(F)cc2)CCN1C (centres unmarked) [Compound 79] | 27 | 50 | 20 | 77 | 62 | –
Cc1ccc2c(c1)c1c(n2CCC(=O)N2CCCCC2)CN(C)CC1 [Compound 43, 3-(1,2,3,4-tetrahydro-2,6-dimethylpyrido[3,4-b]indol-9-yl)-1-(piperidin-1-yl)propan-1-one] | 3 | 30 | 6 | 31 | 69 | –
Cc1ccc2c(c1)c1c(n2CC(O)c2ccccc2)CN(C)CC1 (centres unmarked) [Compound 67] | 51 | 35 | 8 | 85 | 77 | –
CN1CCc2c(n(CC(=O)NC3CCCCC3)c3ccc(Cl)cc23)C1 [Compound 17, 2-(6-chloro-1,2,3,4-tetrahydro-2-methylpyvrido[3,4-b]indol-9-yl)-N-cyclohexylacetamide] | 3 | 54 | -6 | 3 | 17 | –
CC1c2c(c3cc(Cl)ccc3n2C#Cc2ccc(Cl)cc2)CCN1C (centres unmarked) [Compound 132, 6-chloro-9-((4-chlorophenyl)ethynyl)-1,2-dimethyl-2,3,4,9-tetrahydro-1H-pyrido[3,4-b]indole] | 17 | 14 | 57 | 94 | 80 | –
Cc1ccc2c(c1)c1c(n2CCc2ccc(C(F)(F)F)nc2)CN(C)CC1 [Compound 5, 9-(2-(6-(trifluoromethyl)pyridin-3-yl)ethyl)-2,3,4,9-tetrahydro-2,6-dimethyl-1H-pyrido[3,4-b]indole] | 6 | 35 | 36 | 39 | 51 | –
CN1CCc2c(n(CC(=O)N3CCCCC3)c3ccc(Cl)cc23)C1 [Compound 58, 2-(6-chloro-2-methyl-3,4-dihydro-1H-pyrido[3,4-b]indol-9(2H)-yl)-1-(piperidin-1-yl)ethanone] | -7 | 2 | 11 | 30 | -10 | –
